Laboratory results reported in patent US20040122058A1, “Use of specific compounds particularly kinase inhibitors for treating viral infections” (priority 2001, published 2004).

How the values were obtained:
[1] = test system: Marburg (MBG) virus infected peripheral blood mononuclear cells (PBMC); format: cell-based, human
[2] = test system: Ebola (EBO) virus infected peripheral blood mononuclear cells (PBMC); format: cell-based, human
[3] = test system: Marburg virus induced TNF-α release in primary human macrophages; format: cell-based
[4] = test system: Ebola virus induced TNF-α release in primary human macrophages; format: cell-based
[5] = test system: bacterial LPS-induced TNF-α release; format: cell-based, human
[6] = test system: Marburg virus
[7] = test system: Ebola virus
[8] = test system: IL-1 beta release of Marburg virus infected VeroE6 cells
[9] = test system: IL-1 beta release of Ebola virus infected VeroE6 cells

Structure (SMILES) | TNF-α release [1] | TNF-α release [2] | Marburg virus induced TNFα production [3] | virally induced TNF-α release [3] | Ebola virus induced TNFα production [4] | virally induced TNF-α release [4] | bacterial LPS-induced TNF-α production [5] | bacterial LPS-induced TNF-α release [5] | Marburg virus induced TNF-α release/production [3] | Ebola virus induced TNF-α release/production [4] | replication of Marburg virus (plaques) [6] | replication of Ebola virus (plaques) [7] | release of IL-1 beta to the supernatant [8] | release of IL-1 beta to the supernatant [9]
O=C(NOCC1CC1)c1ccc(F)c(F)c1Nc1ccc(I)cc1Cl [Compound 2, 2-(2-chloro-4-iodophenylamino)-N-cyclopropylmethoxy-3,4-difluorobenzamide] | inhibitory effect | inhibitory effect | inhibited very strongly and dose-dependently | inhibitory effects | inhibited very strongly and dose-dependently | inhibitory effects | no inhibitory effect at all | did not reduce |  |  |  |  |  | 
Oc1ccc(-c2nc(-c3ccc(F)cc3)c(-c3ccncc3)[nH]2)cc1 [Compound 4] |  |  |  |  |  |  | no inhibitory effect at all |  | did not significantly inhibit | did not significantly inhibit |  |  |  | 
N#CC(=C(N)Sc1ccccc1N)C(C#N)=C(N)Sc1ccccc1N [Compound 3, 1,4-diamino-2,3-dicyano-1,4-bis(2-aminophenylthio)butadiene] | dose-dependent inhibitory effect | dose-dependent inhibitory effect | inhibited very strongly and dose-dependently | inhibitory effects | inhibited very strongly and dose-dependently | inhibitory effects | no inhibitory effect at all | did not reduce |  |  | does not have an obvious effect | does not have an obvious effect | dramatically reduces | dramatically reduces
COc1cccc(-c2cc(=O)c3ccccc3o2)c1N [Compound 1, 2′-amino-3′-methoxyflavone] | dose-dependent inhibitory effect | dose-dependent inhibitory effect | inhibited very strongly and dose-dependently | inhibitory effects | inhibited very strongly and dose-dependently | inhibitory effects | no inhibitory effect at all | did not reduce |  |  |  |  |  | 
